Test results as given in patent US20150087969A1, “SYSTEMS AND METHODS FOR OPTICALLY GUIDED PLACEMENT AND MONITORING OF MEDICAL IMPLANTS” (Children's National Medical Center, priority 2013, published 2015).

Legend:
[1] = Thermal degradation by thermogravimetric analysis (TGA); type: physicochemical; details: TGA in nitrogen gas at 20° C./min (n=3)
Method: According to an embodiment, aromatic polyether-based medical grade thermoplastic polyurethane (TPU) pellets can be mixed with and without IRDye 800CW to form TPU Composite and Plain TPU using a hydraulic platen press. […] The temperature at which the samples begin to decrease sharply in weight is determined to be their degradation point. According to an embodiment, thermal degradation temperatures are evaluated using a Q50 Thermogravimetric Analyzer (TGA), wherein the analysis is conducted in nitrogen gas at 20° C./min (n=3), where n is the number of times the experiment has been performed.
Furthermore, the degradation temperatures are considerably higher than the processing temperature of TPU (195° C.).

[2] = Stability of IRDye 800CW fluorescent signal in PBS at 37° C.; type: physicochemical; details: PBS at 37° C. with gentle agitation, 12 days
Method: According to another embodiment of the disclosure, in order to determine the long-term effect of being implanted in vivo, catheters are leached in phosphate buffered saline powder (PBS) for 23 days to determine the amount of dye retained within the matrix. TPU Composite tubes are cut into thin slices, weighed, and added to a black 96 well plate containing 200 μl PBS. Leaching of IRDye 800CW from the TPU Composite (n=8) is analyzed under physiological conditions (pH ˜7.4, 37° C., with gentle agitation) in a water bath. The water bath is covered to prevent photo-bleaching. Each day, tubes can be transferred to the successive well containing PBS, and the previous day is analyzed using a micro-plate reader with excitation at 765 nm, emission at 794 nm and a sensitivity of 100. […] Further, to determine the amount of IRDye 800CW retained, a calibration curve containing serial dilutions of IRDye 800CW in PBS is used (0 to 0.00030 wt %) (R^2=0.99). Additionally, 10 mL of IRDye 800CW in PBS is placed in the water bath and 100 μL aliquots are analyzed per day for signs of signal degradation due to heat.
The retention analysis of IR Dye 800 CW within TPU matrix of FIG. 17 includes a 6.35% of the IR Dye 800 CW being released from the polymer over 23 days. […]

[3] = tested on: Human Umbilical Vein Endothelial (HUVEC) cells; assay: Biocompatibility (toxicity) in direct contact with endothelial cells, alamar blue and Calcein AM/propidium iodide; type: cell-based
Method: According to another embodiment of disclosure, biocompatibility studies are conducted to determine the toxicity of TPU Composite in direct contact with endothelial cells as well as the adhesion of endothelial cells to the TPU Composite. Pressed films (Plain TPU and TPU Composite) are sterilized by washing in 1×PBS for 24 hours under constant agitation, followed by a 30 minute soak in 100% ethanol and two 1 hour rinses with PBS. Biocompatibility studies include 12 well cell bind plates being seeded with Human Umbilical Vein Endothelial (HUVEC) cells (passage 4-10, cultured in complete endothelial growth medium EGM Bulletkit, LONZA) at a density of 100 cells/cm^2 for 12 hours to allow for adhesion [37° C., 5% CO2]. Films (19 mm) are placed in direct contact to the cells and incubated for an additional 72 hours, replacing media daily. Toxicity is quantitatively analyzed with alamar blue according to manufacturer's protocol. Briefly, 100 μL of alamar blue is added to the media and allowed to incubate for 1.5 hours. Fluorescence of each alamar blue was read at excitation 545 nm, emission 590 nm. Films are removed from wells and cells are stained with Calcein AM and propidium iodide according to manufacturer's protocol, fixed with 4% paraformaldehyde for 1 hour and rinsed three times with PBS for qualitative analysis of cell death. Cells are imaged with fluorescent confocal imaging (Zeiss) for proliferation, morphology changes and viability. The process is repeated with 0.025 wt % IRDye 800CW in media, cells with media as a positive control, and cells with 70% ethanol in media as a negative control.

[4] = tested on: Human Umbilical Vein Endothelial (HUVEC) cells; assay: Endothelial cell adhesion to films; type: cell-based; details: HUVECs seeded on films, one hour, Calcein AM/propidium iodide
Method: To determine if endothelial cells bind to the catheters, 19 mm films are cut and affixed to the bottom of suspension 12-well culture plates with 50 μL of 10 mg/mL collagen Type I isolated from rat tails. Plates are incubated for 30 minutes to allow for collagen polymerization. Films are seeded with 100 cells/cm^2 and incubated for one hour. Wells are washed with PBS to remove non-adherent cells and stained with Calcein AM and propidium iodide to aid in visualization of cell binding. The number and cell health of adherent cells is analyzed with fluorescence microscopy and compared to positive (collagen plates) and negative (Teflon) controls.
In order to be a viable biomaterial, cell adhesion should be minimal in order to avoid excess damage when removing or inserting the PICC.

Molecule | thermal degradation temperature [1] [°C] | fluorescent signal stability in PBS [2] | Normalized Viability ([3]; 0.025 wt % in media, HUVECs, 72 hours, alamar blue, normalized to media control) | cell viability (statistics) ([3]; 72 hour incubation of HUVECs, IRDye 800CW at 0.025 wt %) | cell morphology or proliferation rates ([3]; Calcein AM and Propidium Iodide staining, HUVECs) | cell adherence (qualitative, cell shape) [4]
CC1(C)C(=CC=C2CCCC(C=CC3=[N+](CCCCCC(=O)[O-])c4ccc(S(=O)(=O)[O-])cc4C3(C)C)=C2Oc2ccc(S(=O)(=O)[O-])cc2)N(CCCCS(=O)(=O)[O-])c2ccc(S(=O)(=O)[O-])cc21.[Na+].[Na+].[Na+].[Na+] [IRDye 800CW] | 308±10 | no observed decrease in the fluorescent signal | 91.27 ± 8.54 | no statistical difference | no apparent change | –
Collagen I: collagen Type I isolated from rat tails, positive control for cell adhesion | – | – | – | – | – | preferentially adhered
